Reference: ChEMBL document CHEMBL1144144, “Methylsulfomycin I, a new cyclic peptide antibiotic from a Streptomyces sp. HIL Y-9420704” (1999)
Converted amounts (≈) assume the structure as drawn.

Columns and labels:
[1] = test system: Enterococcus faecium; test: Antimicrobial activity against vancomycin and teicoplanin-resistant Enterococcus faecium R-1; type: functional
[2] = test system: Enterococcus equinus; test: Antimicrobial activity against vancomycin and teicoplanin-resistant Enterococcus equinus
[3] = test system: Staphylococcus haemolyticus; test: Antimicrobial activity against teicoplanin-sensitive Staphylococcus haemolyticus 712; type: functional
[4] = test system: Enterococcus faecium; test: Antimicrobial activity against vancomycin and teicoplanin-resistant Enterococcus faecium P-1; type: functional
[5] = test system: Enterococcus faecium; test: Antimicrobial activity against vancomycin and teicoplanin-resistant Enterococcus faecium R-2; type: functional
[6] = test system: Staphylococcus epidermidis; test: Antimicrobial activity against teicoplanin-sensitive Staphylococcus epidermidis 825; type: functional
[7] = test system: Enterococcus faecium; test: Antimicrobial activity against vancomycin and teicoplanin-resistant Enterococcus faecium P-1 relative to vancomycin; type: functional
[8] = test system: Staphylococcus haemolyticus; test: Antimicrobial activity against teicoplanin-resistant Staphylococcus haemolyticus 712 relative to vancomycin; type: functional
[9] = test system: Staphylococcus epidermidis; test: Antimicrobial activity against teicoplanin-resistant Staphylococcus epidermidis 823 relative to vancomycin; type: functional
[10] = test system: Enterococcus faecium; test: Antimicrobial activity against vancomycin and teicoplanin-resistant Enterococcus faecium R-2 relative to vancomycin; type: functional
[11] = test system: Enterococcus faecium; test: Antimicrobial activity against vancomycin and teicoplanin-resistant Enterococcus faecium R-1 relative to vancomycin; type: functional
[12] = test system: Staphylococcus aureus; test: Antimicrobial activity against methicillin-resistant Staphylococcus aureus; type: functional
[13] = test system: Enterococcus; test: Antimicrobial activity against Enterococcus species; type: functional
[14] = test system: Staphylococcus epidermidis; test: Antimicrobial activity against teicoplanin-sensitive Staphylococcus epidermidis 825 relative to vancomycin; type: functional
[15] = test system: Enterococcus equinus; test: Antimicrobial activity against vancomycin and teicoplanin-resistant Enterococcus equinus relative to vancomycin
[16] = test system: Staphylococcus haemolyticus; test: Antimicrobial activity against teicoplanin-sensitive Staphylococcus haemolyticus 712 relative to vancomycin; type: functional

Row | SMILES | MIC [1] [mg/L] | MIC [2] [mg/L] | MIC [3] [mg/L] | MIC [4] [mg/L] | MIC [5] [mg/L] | MIC [6] [mg/L] | fold change (FC) [7] | fold change (FC) [8] | fold change (FC) [9] | fold change (FC) [10] | fold change (FC) [11] | MIC [12] [mg/L] | MIC [13] [mg/L] | fold change (FC) [14] | fold change (FC) [15] | fold change (FC) [16]
1 | CN[C@H](CC(C)C)C(=O)N[C@H]1C(=O)N[C@@H](CC(N)=O)C(=O)N[C@H]2C(=O)N[C@H]3C(=O)N[C@H](C(=O)N[C@H](C(=O)O)c4cc(O)cc(O)c4-c4cc3ccc4O)[C@H](O)c3ccc(c(Cl)c3)Oc3cc2cc(c3O[C@@H]2O[C@H](CO)[C@@H](O)[C@H](O)[C@H]2O[C@H]2C[C@](C)(N)[C@H](O)[C@H](C)O2)Oc2ccc(cc2Cl)[C@H]1O [VANCOMYCIN] | > 100 | > 100 | 0.78 (≈ 0.538 µM) | > 100 | > 100 | 0.78 (≈ 0.538 µM) |  |  |  |  |  |  |  |  |  | 
2 | C=C(NC(=O)C(=C)NC(=O)C(=C)NC(=O)c1ccc2c(n1)-c1nc(oc1C)C(=C)NC(=O)C(=C)NC(=O)c1nc(oc1C)/C(=C/C)NC(=O)c1csc(n1)[C@H](OC)NC(=O)c1nc(oc1C)/C(=C\C(C)O)NC(=O)[C@H]([C@@H](C)O)NC(=O)c1csc-2n1)C(N)=O (stereo partly specified) [METHYLSULFOMYCIN I] |  |  |  |  |  |  | > 800 | 12.4 | 12.4 | > 800 | > 800 | 0.06 (≈ 0.0476 µM) | 0.06 (≈ 0.0476 µM) | 6.2 | > 800 | 6.2
